This is an account of results in patent publication US10927126B2, “Positive allosteric modulators of the muscarinic acetylcholine receptor M4” (Vanderbilt University, priority 2016, dated 2021).

Structures are written as SMILES. pEC50: −log10 of the molar value. Counter-ions that a name gives are not always drawn.

One may read the pEC50 as −log10 of the EC50, conventionally taken in molar units. One may read the Emax as the size of the effect at its maximum, as opposed to the concentration needed.

Test system in the first data set: not given
Assay: not given
The note with it: Alzheimer's disease patients; cited from earlier work.
As for `CCCCCCOc1nsnc1C1=CCCN(C)C1` [xanomeline], the “effect on psychotic behavioral symptoms such as delusions, suspiciousness, vocal outbursts, and hallucinations” value was “reduce psychotic behavioral symptoms”.

Test system in a further data set: not given
Assay: not given
The note with it: similar profiles to known antipsychotic drugs, without causing catalepsy; cited from earlier work.
In the case of `CCCCCCOc1nsnc1C1=CCCN(C)C1` [xanomeline], the “activity in animal models” value was “active in animal models”.

Test system in a further data set: not given
Assay: not given
To be noted: patients treated with AChE inhibitor; cited from earlier work.
Regarding `Nc1c2c(nc3ccccc13)CCCC2` [tacrine], the “patients with elevated liver transaminases” value is listed as “about 30%”.

Another data set deals with T1, Human M4 (Homo sapiens, UniProt P08173).
T1 sequence (P08173 1-479): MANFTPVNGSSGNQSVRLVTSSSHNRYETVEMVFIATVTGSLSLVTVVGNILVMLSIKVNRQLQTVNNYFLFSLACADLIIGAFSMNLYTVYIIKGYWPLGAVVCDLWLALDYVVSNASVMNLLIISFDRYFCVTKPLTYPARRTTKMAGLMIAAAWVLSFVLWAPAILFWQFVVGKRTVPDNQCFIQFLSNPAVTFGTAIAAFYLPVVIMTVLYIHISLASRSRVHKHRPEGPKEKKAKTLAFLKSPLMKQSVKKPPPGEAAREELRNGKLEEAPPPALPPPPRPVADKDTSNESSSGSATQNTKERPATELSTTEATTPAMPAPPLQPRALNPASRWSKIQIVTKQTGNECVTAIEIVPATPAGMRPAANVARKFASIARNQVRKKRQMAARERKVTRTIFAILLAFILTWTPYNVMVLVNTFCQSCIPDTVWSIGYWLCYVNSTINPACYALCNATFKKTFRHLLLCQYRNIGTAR
Briefly: mAChR M4 cell-based functional assay (calcium flux, potentiation of EC20 acetylcholine response).
Conditions: not given
Details: Emax: dose or concentration left out as unconfirmed.
In the case of `COc1ccc(CNc2nccc3c2sc2nc(C)cc(C)c23)cc1F` [Compound 25, N-(3-fluoro-4-methoxybenzyl)-2,4-dimethylthieno[2,3-b:5,4-c′]dipyridin-8-amine], the pEC50 is under 5.00 and the Emax turned out to be 90.3%.
Turning to `Cc1cc(C)c2c(n1)sc1c(NCc3ccc(C(C)(C)O)cc3)nccc12` [Compound 26, 2-(4-(((2,4-dimethylthieno[2,3-b:5,4-c′]dipyridin-8-yl)amino)methyl)phenyl)propan-2-ol], the pEC50 was 6.49 and the Emax is 101%.
As for `Cc1cc(C)c2c(n1)sc1c(NCc3ccc(C(C)(C)O)cc3F)nccc12` [Compound 27, 2-(4-(((2,4-dimethylthieno[2,3-b:5,4-c′]dipyridin-8-yl)amino)methyl)-3-fluorophenyl)propan-2-ol], the negative-log EC50 (pEC50) was 5.96 and the Emax came out at 102%.
Turning to `COc1ccc(CNc2nccc3c2sc2nc(C)c(Cl)c(C)c23)cc1` [Compound 28, 3-Chloro-N-(4-methoxybenzyl)-2,4-dimethylthieno[2,3-b:5,4-c′]dipyridin-8-amine], the pEC50 was 5.30 and the Emax turned out to be 60.8%.
In the same order, the values of `Cc1nc2sc3c(NCc4ccc(C(C)(C)O)cc4)nccc3c2c(C)c1Cl` [Compound 29, 2-(4-(((3-chloro-2,4-dimethylthieno[2,3-b:5,4-c′]dipyridin-8-yl)amino)methyl)phenyl)propan-2-ol] are 5.81 and 72.9%.
In the same order, the values of `Cc1nc2sc3c(N4CCCC4)nccc3c2c(C)c1Cl` [Compound 30, 3-chloro-2,4-dimethyl-8-(pyrrolidin-1-yl)thieno[2,3-b:5,4-c′]dipyridine] are 6.15 and 79.5%.
For `Cc1nc2sc3c(NCc4ccc(C(C)(C)O)c(F)c4)nccc3c2c(C)c1Cl` [Compound 31, 2-(4-(((3-chloro-2,4-dimethylthieno[2,3-b:5,4-c′]dipyridin-8-yl)amino)methyl)-2-fluorophenyl)propan-2-ol] the same measures were 5.58 and 76.6%.
`COc1ccc(CNc2nccc3c2sc2nnc(Cl)c(C)c23)cc1` [Compound 32, 3-chloro-N-(4-methoxybenzyl)-4-methylpyrido[4′,3′:4,5]thieno[2,3-c]pyridazin-8-amine]: the pEC50 was 7.24 and the Emax turned out to be 77.5%.
`Cc1c(Cl)nnc2sc3c(NC4CN(c5ncc(C(F)(F)F)cn5)C4)nccc3c12` [Compound 33, 3-chloro-4-methyl-N-(1-(5-(trifluoromethyl)pyrimidin-2-yl)azetidin-3-yl)pyrido[4′,3′:4,5]thieno[2,3-c]pyridazin-8-amine, 2,2,2-trifluoroacetic acid salt]: the pEC50 was 7.27 and the Emax came out at 85.3%.
Regarding `Cc1c(Cl)nnc2sc3c(NC4CCC4)nccc3c12` [Compound 34, 3-chloro-N-cyclobutyl-4-methylpyrido[4′,3′:4,5]thieno[2,3-c]pyridazin-8-amine], the pEC50 is 7.63 and the Emax worked out at 91.4%.
`Cc1c(Cl)nnc2sc3c(N4CCCC4)nccc3c12` [Compound 35, 3-chloro-4-methyl-8-(pyrrolidin-1-yl)pyrido[4′,3′:4,5]thieno[2,3-c]pyridazine]: the pEC50 is 7.60 and the Emax is 101%.
Take `COc1ccc(CNc2nccc3c2sc2nnc(Cl)c(C)c23)cc1F` [Compound 36, 3-chloro-N-(3-fluoro-4-methoxybenzyl)-4-methylpyrido[4′,3′:4,5]thieno[2,3-c]pyridazin-8-amine]: the pEC50 was 6.73 and the Emax was determined as 97.6%.
As for `COc1ccc(CNc2nccc3c2sc2nnc(OC)c(C)c23)cc1` [Compound 37, 3-Methoxy-N-(4-methoxybenzyl)-4-methylpyrido[4′,3′:4,5]thieno[2,3-c]pyridazin-8-amine], the pEC50 was 6.25 and the Emax worked out at 76.4%.
On to `COc1nnc2sc3c(NC4CN(c5ncc(C(F)(F)F)cn5)C4)nccc3c2c1C` [Compound 38, 3-methoxy-4-methyl-N-(1-(5-(trifluoromethyl)pyrimidin-2-yl)azetidin-3-yl)pyrido[4′,3′:4,5]thieno[2,3-c]pyridazin-8-amine], for which the pEC50 was 6.55 and the Emax is 80.6%.
For `COc1nnc2sc3c(NC4CCC4)nccc3c2c1C` [Compound 39, N-cyclobutyl-3-methoxy-4-methylpyrido[4′,3′:4,5]thieno[2,3-c]pyridazin-8-amine] the same measures were 7.63 and 93.2%.
With `Cc1c(C(F)F)nnc2sc3c(N4CCCC4)nccc3c12` [Compound 40, 3-(Difluoromethyl)-4-methyl-8-(pyrrolidin-1-yl)pyrido[4′,3′:4,5]thieno[2,3-c]pyridazine], the pEC50 is 6.43 and the Emax was 55.9%.
On to `Cc1c(C(F)F)nnc2sc3c(N4CC5(COC5)C4)nccc3c12` [Compound 41, 6-(3-(difluoromethyl)-4-methylpyrido[4′,3′:4,5]thieno[2,3-c]pyridazin-8-yl)-2-oxa-6-azaspiro[3.3]heptane], for which the pEC50 is 5.73 and the Emax stood at 54.8%.
`Cc1c(C(F)F)nnc2sc3c(N4CC(c5ccncc5)C4)nccc3c12` [Compound 42, 3-(difluoromethyl)-4-methyl-8-(3-(pyridin-4-yl)azetidin-1-yl)pyrido[4′3′:4,5]thieno[2,3-c]pyridazine]: the pEC50 is 6.35 and the Emax amounted to 56.1%.
